Legend:
HLA-A*0201 molecule = HLA-A*0201 molecule (Homo sapiens, UniProt P04439, D140Y/D185E/D98H/E176V/E277Q/G131W/G231S/I119V/I121R/I166T/I218V/L300P/L318F/N151K/N90K/P208A/P217A/Q86G/Q94H/R138H/R169H/T345S); test: T2-cell-peptide binding test (affinity of peptide for HLA-A*0201); settings: various peptide concentrations, 3 μg/mL human β2m, serum-free RPMI 1640, 37°C, 16 h, flow cytometry, three replicates, repeated three times
Experimental: The affinity of peptides for HLA-A*0201 was measured as described previously. Briefly, T2 cells were incubated with various concentrations of each peptide and 3 μg/mL human β2m in serum-free RPMI 1640 medium at 37°C for 16 h. Then, the cells were washed and stained with antiHLA-A2 mAb and FITC-labeled goat anti-mouse IgG. The expression of HLA-A*0201 on T2 cells was determined with FACS Calibur flow cytometer (Becton Dickinson, USA). For each peptide concentration, the percent mean fluorescence index (% MFI) increase of HLA-A*0201 molecule was calculated as follows: % MFI increase = [(MFI with the given peptide − MFI without peptide)/(MFI without peptide)] × 100.
Figure 1 Binding affinity of peptides for HLA-A*0201 molecule. T2 cells were incubated with indicated concentrations of the peptides in serum-free RPMI 1640 medium supplied with 3 μg/mL human β2m at 37°C for 16 h. And then the cells were stained with anti-HLA-A2 mAb and FITC-labeled goat antimouse IgG. The expression of HLA-A*0201 on T2 cells was determined with FACS Calibur flow cytometer. The peptides HBcAg18–27 and OVA257–264 were taken as positive control and negative control, respectively. Each sample was measured in three replicates and the experiment was repeated three times.

[1] = tested on: peptide/HLA-A*0201 complex; test: Peptide/HLA-A*0201 complex stability on T2 cells; type: binding, human; settings: for % MFI increase at indicated time point (h): 0 / DC50 (half-time of the peptide/HLA-A*0201 complex): T2 cells, 37°C; for % MFI increase at indicated time point (h): 0: 100 μM peptide overnight, 100 ng/mL human β2m, Brefeldin A 10 μg/mL 1 h, then 0 h at 37°C, anti-HLA-A2 mAb staining; for DC50 (half-time of the peptide/HLA-A*0201 complex): 100 μM peptide, time points 0-8 h; for % MFI increase at indicated time point (h): 2 / % MFI increase at indicated time point (h): 4 / % MFI increase at indicated time point (h): 6 / % MFI increase at indicated time point (h): 8: as at 0 h; for % MFI increase at indicated time point (h): 2: then 2 h at 37°C after Brefeldin A; for % MFI increase at indicated time point (h): 4: then 4 h at 37°C after Brefeldin A; for % MFI increase at indicated time point (h): 6: then 6 h at 37°C after Brefeldin A; for % MFI increase at indicated time point (h): 8: then 8 h at 37°C after Brefeldin A
Experimental: As previously described, T2 cells (10^6/mL) were incubated overnight with 100 μM of each peptide in serum-free RPMI 1640 medium supplemented with 100 ng/mL human β2m at 37°C. Then, they were washed to remove free peptides and incubated with 10 μg/mL of Brefeldin A (Sigma-Aldrich, USA) for 1 h to block newly synthesized HLA-A*0201 molecules to be expressed on cell surface, washed and incubated at 37°C for 0, 2, 4, 6, or 8 h. Subsequently, the cells were stained with the anti-HLA-A2 mAb to evaluate the expression of HLA-A*0201 molecules.

LB1751-MEL cells [2] = test: Cytotoxicity (LDH release) of peptide-stimulated human PBMCs against LB1751-MEL; type: cell-based; settings: PBMCs of healthy HLA-A*0201 donors, E/T 50/1, 25/1, 12.5/1, 4 h
Experimental: (§1) PBMCs were isolated from the buffy coat of heparinized whole blood samples of healthy HLA-A*0201 donors by density gradient centrifugation on the Ficoll-Paque PREMIUM (GE Healthcare Bio-Sciences AB, Uppsala, Sweden). The effector lymphocytes and dendritic cells (DCs) were prepared by our published method. All donors signed written, informed consent to provide whole blood samples used in the study. Approval of the study was obtained from the relevant ethical committees and was in accordance with the Declaration of Helsinki.
(§2) Three to five days after the final stimulation, the cytotoxic activity of the effector cells was evaluated by a lactate dehydrogenase release assay using Cytotox 96 Non-Radioactive Cytotoxicity Assay kit (Promega, USA). In brief, 1×10^4 target cells (LB1751-MEL, MCF-7 or MCF-7A4) in 50 μL RPMI 1640 containing 5% fetal calf serum (FCS) was placed in the wells of a 96-well round-bottom plate, then 50 μL of various concentrations of effector cells was added at different effector to target (E/T) ratios (50/1, 25/1, and 12.5/1). After 4 h incubation at 37°C, the supernatant was collected to assay lactate dehydrogenase (LDH) release by OD490 measurement according to the manufacturer's instructions. Experiments were performed in triplicates and the percentage of lysis was calculated as % Lysis = [(experimental LDH release − effector spontaneous LDH release − target spontaneous LDH release)/(target maximum LDH release − target spontaneous LDH release)] × 100.
Figure 2 Induction of peptide-specific CTLs from human PBMCs. PBMCs from healthy HLA-A*0201 donors were first stimulated with peptide-pulsed autologous DCs and then restimulated with peptide-pulsed autologous PBMCs. After three to five days of the final stimulation, the stimulated PBMCs were used as effector cells to detect their cytotoxic activity against tumor cells at the indicated E/T ratios in a cytotoxicity assay. The irrelevant peptide HBcAg18–27 was taken as negative control. Each sample was measured in three replicates and the experiment was repeated three times. […] (c) P1- and P3-stimulated PBMCs mediated lysis of MCF-7A4 cells. (d) P1- and P3-stimulated PBMCs mediated lysis of MCF-7 cells.

MCF-7A4 cells = test: Cytotoxicity (LDH release) of peptide-stimulated human PBMCs against MCF-7A4; type: cell-based; settings: 4 h
Excerpt: To establish a cell line expressing both HLA-A*0201 and MAGE-A4, MCF-7 cells were transfected with plasmid pCI-MAGEA4 using Lipofectamine 2000 (Invitrogen, USA) and then selected with G418. The expression of MAGE-A4 in the established cell line (designated MCF-7A4) was confirmed by reverse transcription-PCR and western blotting.
as §1, with “Approval of the study was obtained from the relevant ethical committees and was in accordance with the Declaration of Helsinki.” left out
Three to five days after the final stimulation, the cytotoxic activity of the effector cells was evaluated by a lactate dehydrogenase release assay using Cytotox 96 Non-Radioactive Cytotoxicity Assay kit (Promega, USA). […] Experiments were performed in triplicates and the percentage of lysis was calculated as % Lysis = [(experimental LDH release − effector spontaneous LDH release − target spontaneous LDH release)/(target maximum LDH release − target spontaneous LDH release)] × 100.
Figure 2 Induction of peptide-specific CTLs from human PBMCs. […] Each sample was measured in three replicates and the experiment was repeated three times. […]

LB1751-MEL cells [3] = test: In vivo induction of peptide-specific CTLs in HLA-A*0201/K^b transgenic mice; settings: 100 μg peptide in IFA once, splenocytes after 10 days, restimulated in vitro 5 days with peptide and rmIL-2; LDH release
Experimental: as §2
HLA-A*0201/K^b mice were immunized with 100 μg of various peptides prepared in IFA or IFA emulsion without peptide as a control. After 10 days, mice were sacrificed and splenocytes were cultured for 5 days with 10 units/mL recombinant murine interleukin-2 (rmIL-2) and […]. And then, effector cells were counted and tested for cytotoxic activity in a cytotoxicity assay.
Figure 3 In vivo induction of peptide-specific CTLs. […]

Row | Substance | Binding affinity for HLA-A*0201 molecule (increase of HLA-A*0201 expression on T2 cells) (HLA-A*0201 molecule) | % MFI increase at indicated time point (h): 0 [1] [%] | DC50 (half-time of the peptide/HLA-A*0201 complex) [1] [h] | % MFI increase at indicated time point (h): 2 [1] [%] | % MFI increase at indicated time point (h): 4 [1] [%] | % MFI increase at indicated time point (h): 6 [1] [%] | % MFI increase at indicated time point (h): 8 [1] [%] | Lysis of LB1751-MEL target cells by peptide-stimulated PBMCs (LB1751-MEL cells [2]) | Lysis of MCF-7A4 cells (HLA-A*0201 and MAGE-A4 expressing) by peptide-primed effector cells (MCF-7A4 cells) | Lysis of LB1751-MEL target cells by splenocytes of peptide-inoculated mice (LB1751-MEL cells [3])
1 | ALLEEEEGV [Peptide P2] | lower affinity | 170.07 | 2 | 84.13 | 57.09 | 42.34 | 31.19 | could not lyse |  | 
2 | ALPTTISFT [Peptide P4] | lowest affinity | 98.80 | 2 | 48.73 | 30.79 | 21.01 | 18.52 | could not lyse |  | 
3 | FLWGPRALA [Peptide P3] | highest affinity | 285.66 | 8 | 230.85 | 192.71 | 170.05 | 150.56 | could significantly lyse | could also lyse | could lyse
4 | KVLEHVVRV [Peptide P1] | lowest affinity | 126.16 | 4 to 6 | 95.74 | 74.98 | 60.29 | 49.07 | could significantly lyse | could also lyse | could lyse
5 | OVA257–264: control peptide, negative control in HLA-A*0201 binding test (ESIINFEK; UniProt P01012 257-264, looked up, fragment) [reference compound] | did not increase |  |  |  |  |  |  |  |  | 
